Consider eleven compounds from PMC6976569, “Structural basis of subtype-selective competitive antagonism for GluN2C/2D-containing NMDA receptors” (Nature Communications, 2020).

Molecules are shown by their SMILES. Values joined by “and” are separate entries in the source; they are usually repeats but may differ in a detail not shown here. Equal entries are not always repeated. Where two headings read alike, the source gives them in different places.

Experiment [1] addresses T1, GluN1-4a/GluN2D NMDARs (Rattus norvegicus, UniProt P35439+Q62645).
T1 construct: expressed in transfected cells; host or cells: Xenopus laevis oocytes injected with cRNA
The experiment is described as follows: TEVC electrophysiology on Xenopus laevis oocytes expressing GluN1-4a/GluN2D. It counts as cell-based. The source says:
(§1) The chemical definition of UBP791 used in this study is a cis-racemic mixture of (2S,3R)- and (2R,3S)-isomers.
(§2) Plasmids (pSP or pCI_NEO) harboring rat GluN1 or GluN2 full-length subunits were linearized by restriction digestion and transcribed according to the manufacturer’s instructions (mMESSAGE mMachine SP6 or T7 kit, ThermoFisher Scientific). Recombinant rat GluN1-4a and GluN2 were expressed by co-injecting cRNA at a 1:2 (w/w) ratio into defolliculated X. laevis oocytes (amounts varied from 0.05–25 ng per oocyte). Two-electrode voltage-clamp recordings were performed 1–3 days after injection using agarose-tipped microelectrodes (0.4–1.2 MΩ) filled with 3 M KCl at a holding potential of −60 mV. The bath solution contained 5 mM HEPES, 100 mM NaCl, 0.3 mM BaCl2, 10 mM Tricine, at pH 7.4 (adjusted with KOH). […] For the statistical evaluation, we implemented pairwise F-tests to test variances, and then performed the Student t test with equal or unequal variances as determined previously, and accounted for multiple testing with the Bonferroni correction.

Experiment [2] addresses T2, GluN1-4a/GluN2D Met763Lys NMDARs (Rattus norvegicus, UniProt P35439+Q62645, M763K).
T2 construct: expressed in transfected cells; host or cells: Xenopus laevis oocytes injected with cRNA
Put plainly: TEVC electrophysiology on oocytes expressing GluN1-4a/GluN2D Met763Lys. It is filed as cell-based.
From the text: (§3) To test the validity of the structural observation for the critical involvement of the methionine/lysine residue combination (GluN2D-Met763/Lys766, and GluN2A-4m-Met738/Lys741) in preferential binding of UBP791 to GluN2D over GluN2A, we conducted site-directed mutagenesis and assessed inhibition potencies of the mutant channels by TEVC. Specifically, we converted the GluN2D residues to the equivalent ones in the GluN2A subunit and measured macroscopic currents of the GluN1-4a/GluN2D mutant NMDARs.
as §2

The target in experiment [3] is T3, GluN1-4a/GluN2D Lys766Arg NMDARs (Rattus norvegicus, UniProt P35439+Q62645, K766R).
T3 construct: expressed in transfected cells; host or cells: Xenopus laevis oocytes injected with cRNA
Put plainly: TEVC electrophysiology on oocytes expressing GluN1-4a/GluN2D Lys766Arg. It counts as cell-based.
From the text: as §3, §2

For experiment [4], the target named is T4, GluN1-4a/GluN2D Met763Lys/Lys766Arg NMDARs (Rattus norvegicus, UniProt P35439+Q62645, K766R/M763K).
T4 construct: expressed in transfected cells; host or cells: Xenopus laevis oocytes injected with cRNA
The experiment is described as follows: TEVC electrophysiology on oocytes expressing GluN1-4a/GluN2D Met763Lys/Lys766Arg. It counts as cell-based.
From the text: as §3, §2

In experiment [5] the target is T5, GluN1-4a/GluN2A NMDARs (Rattus norvegicus, UniProt P35439+Q00959).
T5 construct: expressed in transfected cells; host or cells: Xenopus laevis oocytes injected with cRNA
The experiment is described as follows: TEVC electrophysiology on Xenopus laevis oocytes expressing GluN1-4a/GluN2A. It is filed as cell-based. The following applies: Cheng–Prusoff from IC50 and L-glutamate EC50; 100 μM glycine, 1 or 3 μM L-glutamate.
From the text: as §1, §2

For experiment [6], the target named is T6, GluN1-4a/GluN2A NMDARs (Rattus norvegicus, UniProt Q00959).
T6 construct: expressed in transfected cells; host or cells: Xenopus laevis oocytes injected with cRNA
The description is as above. It counts as cell-based. The following applies: Ki GluN2A relative to Ki GluN2D (WT).
From the text: as §1, §2

The target in experiment [7] is GluA1 (Homo sapiens, UniProt P42261). The experiment is described as follows: Glutamate-stimulated Ca2+-influx fluorescence assay in HEK293 cells, GluA1. The following applies: for IC50: HEK293 cells, glutamate-stimulated Ca2+-influx. It is filed as cell-based. On the procedure:
(§4) HEK293 cell lines stably expressing homomeric glutamate receptors (GluA1, GluK1 and GluK2) were obtained from Eli Lilly and grown in DMEM (ThermoFisher) supplemented with 10% v/v fetal bovine serum (Sigma), 2 mM Glutamax™ (Gibco), 100 U/mL penicillin, 100 µg streptomycin and 250 ng amphotericin B (Sigma) in 5% CO2 at 37 °C. Cells were passaged using TrypLE (Gibco) as required before confluency and periodically treated with selection antibiotics (GluK1, GluK2 hygromycin B, 200 µg/mL; GluA1 geneticin™, 200 µg/mL).
(§5) Calcium influx fluorescence assay
(§6) 100k cells/well were seeded into a 96-well plate precoated with poly-L-lysine and incubated for 12-16 hours until fully confluent. The cell monolayer was washed twice with 100 µL Hanks Balanced Salt Solution supplemented with 5 mM CaCl2 and 20 mM HEPES (sHBSS), then incubated for 2-4 hours with 100 µL working solution of Ca6 dye (Molecular Devices) supplemented with a desensitization blocker (GluK1, GluK2 0.25 mg/mL concanavalin A, Sigma; GluA1 100 µM cyclothiazide, Sigma). The time resolved fluorescence was recorded in a Flexstation 3 instrument (Molecular Devices). For each individual reading, the initial fluorescence of the well was measured for 20 seconds, after which the desired concentration of […]
(§7) response is measured as the peak change in fluorescence upon addition of agonist. The viability of the cells was confirmed by determination of the concentration-response curve to the L-glutamate agonist and a standard antagonist for each plate. Readings of antagonists used the […]
(§8) Fluorescence traces were performed in […]
(§9) triplicate on each plate and Ki values were determined on a plate-by-plate basis. Separate experiments (n) were performed on different passages of cells. […]

The target in experiment [8] is GluK2 (Homo sapiens, UniProt Q13002). Put plainly: Glutamate-stimulated Ca2+-influx fluorescence assay in HEK293 cells, GluK2. It is filed as cell-based. The following applies: for IC50: HEK293 cells, glutamate-stimulated Ca2+-influx. On the procedure:
as §4, §5, §6, §7, §8, §9

The subject of experiment [9] is GluN2C/2D-containing NMDARs. The following applies: cited from earlier work; for GluN2C/2D preference over GluN2A/2B: allosteric inhibitors.
Experiment [10] concerns the target GluN2C-containing receptors. The following applies: cited from earlier work.
The target in experiment [11] is GluN2D-containing receptors. The following applies: cited from earlier work.
The subject of experiment [12] is GluN2D. Further details: method as in Swanger et al., 2017. The following applies: GluN2D expressed in mammalian cells; ref Swanger et al., 2017; cited from earlier work.
In experiment [13] the test system is GluN2A/2C-triheteromers. Also on record: method as in Swanger et al, 2017. The following applies: oocyte-based system; ref Swanger et al, 2017; cited from earlier work.
For experiment [14], the target named is GluA2. Also on record: method as in PMID 24462099. The following applies: cited from earlier work.
In experiment [15] the target is GluK1. Also on record: method as in PMID 24462099. The following applies: cited from earlier work.
Experiment [16] deals with GluN1/GluN2B/GluN2D triheteromers. Also on record: method as in Brothwell et al., 2008; Suárez et al., 2010. The following applies: substantia nigra pars compacta; ref Brothwell et al., 2008; Suárez et al., 2010; cited from earlier work.
For experiment [17], the target named is GluN2A-containing receptors. The following applies: cited from earlier work.
The target of experiment [18] is GluN2B-containing receptors. Also on record: method as in earlier work. The following applies: TEVC; ref 1-3 (supplementary references); cited from earlier work.
Experiment [19] concerns GluN2A-Lys738Met. Further details: method as in PMID 24462099. The following applies: cited from earlier work.
The test system of experiment [20] is tPA-promoted neurotoxicity. Further details: method as in Jullienne et al, 2011. The following applies: given i.v.; only active where the blood brain barrier was compromised; ref Jullienne et al, 2011; cited from earlier work.
Experiment [21] has as its system GluN1/GluN2B/GluN2D triheteromers. Also on record: method as in Volianskis et al., 2013. The following applies: hippocampus, at concentrations selective for GluN2D; ref Volianskis et al., 2013; cited from earlier work.
[22] abbreviates: normalized response at 30 µM compound.
[23] abbreviates: normalized response at 100 µM compound.
Setting [24] is: TEVC, ref 1-3 (supplementary references).

Chain of GluK2 (Q13002 32-908): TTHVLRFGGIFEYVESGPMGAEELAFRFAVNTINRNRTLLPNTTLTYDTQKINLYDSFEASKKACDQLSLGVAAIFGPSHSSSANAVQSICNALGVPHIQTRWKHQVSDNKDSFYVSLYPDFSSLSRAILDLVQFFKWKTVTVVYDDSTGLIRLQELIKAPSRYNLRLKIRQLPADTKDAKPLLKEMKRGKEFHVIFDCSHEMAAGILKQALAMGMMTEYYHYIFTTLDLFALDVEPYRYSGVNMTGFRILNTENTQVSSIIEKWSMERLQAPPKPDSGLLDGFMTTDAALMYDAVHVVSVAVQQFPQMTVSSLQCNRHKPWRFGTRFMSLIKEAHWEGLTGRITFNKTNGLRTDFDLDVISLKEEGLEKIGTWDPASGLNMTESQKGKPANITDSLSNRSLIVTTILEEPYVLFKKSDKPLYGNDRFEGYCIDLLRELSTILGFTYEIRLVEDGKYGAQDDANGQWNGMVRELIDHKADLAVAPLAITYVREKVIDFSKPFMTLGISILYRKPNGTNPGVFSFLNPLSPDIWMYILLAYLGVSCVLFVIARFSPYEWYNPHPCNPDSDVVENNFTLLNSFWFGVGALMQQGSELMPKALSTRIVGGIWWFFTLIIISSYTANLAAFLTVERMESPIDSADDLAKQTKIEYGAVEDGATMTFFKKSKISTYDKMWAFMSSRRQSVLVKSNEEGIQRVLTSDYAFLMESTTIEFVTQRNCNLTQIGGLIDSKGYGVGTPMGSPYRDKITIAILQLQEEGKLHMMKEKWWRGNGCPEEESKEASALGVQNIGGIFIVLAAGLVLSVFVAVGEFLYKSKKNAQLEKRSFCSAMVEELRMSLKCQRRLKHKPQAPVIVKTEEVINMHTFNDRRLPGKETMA
Chain of GluA1 (P42261 19-906): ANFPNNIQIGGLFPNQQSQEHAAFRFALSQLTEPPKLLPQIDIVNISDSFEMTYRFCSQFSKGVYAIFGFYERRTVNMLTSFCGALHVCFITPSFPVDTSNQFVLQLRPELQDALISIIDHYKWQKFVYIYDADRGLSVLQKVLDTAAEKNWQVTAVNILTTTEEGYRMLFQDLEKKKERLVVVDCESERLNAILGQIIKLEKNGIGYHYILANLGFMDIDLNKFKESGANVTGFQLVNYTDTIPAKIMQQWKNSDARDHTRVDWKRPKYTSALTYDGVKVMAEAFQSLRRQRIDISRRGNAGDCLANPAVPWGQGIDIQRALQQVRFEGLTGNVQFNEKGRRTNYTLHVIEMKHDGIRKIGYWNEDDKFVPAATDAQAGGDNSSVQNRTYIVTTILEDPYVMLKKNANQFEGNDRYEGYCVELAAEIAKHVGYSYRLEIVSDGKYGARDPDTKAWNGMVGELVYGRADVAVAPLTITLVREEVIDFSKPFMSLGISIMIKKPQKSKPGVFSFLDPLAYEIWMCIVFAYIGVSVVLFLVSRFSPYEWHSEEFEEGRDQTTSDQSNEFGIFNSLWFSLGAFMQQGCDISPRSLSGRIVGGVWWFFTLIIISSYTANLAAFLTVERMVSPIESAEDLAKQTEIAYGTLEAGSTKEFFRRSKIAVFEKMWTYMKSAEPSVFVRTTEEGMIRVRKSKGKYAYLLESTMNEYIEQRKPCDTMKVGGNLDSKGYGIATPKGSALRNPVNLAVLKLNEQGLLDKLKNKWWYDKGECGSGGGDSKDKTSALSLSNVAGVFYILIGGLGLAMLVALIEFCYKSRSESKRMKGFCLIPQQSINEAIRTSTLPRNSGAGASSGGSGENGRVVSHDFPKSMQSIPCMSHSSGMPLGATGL
T1 sequence (Q62645 28-1323, other chains not shown): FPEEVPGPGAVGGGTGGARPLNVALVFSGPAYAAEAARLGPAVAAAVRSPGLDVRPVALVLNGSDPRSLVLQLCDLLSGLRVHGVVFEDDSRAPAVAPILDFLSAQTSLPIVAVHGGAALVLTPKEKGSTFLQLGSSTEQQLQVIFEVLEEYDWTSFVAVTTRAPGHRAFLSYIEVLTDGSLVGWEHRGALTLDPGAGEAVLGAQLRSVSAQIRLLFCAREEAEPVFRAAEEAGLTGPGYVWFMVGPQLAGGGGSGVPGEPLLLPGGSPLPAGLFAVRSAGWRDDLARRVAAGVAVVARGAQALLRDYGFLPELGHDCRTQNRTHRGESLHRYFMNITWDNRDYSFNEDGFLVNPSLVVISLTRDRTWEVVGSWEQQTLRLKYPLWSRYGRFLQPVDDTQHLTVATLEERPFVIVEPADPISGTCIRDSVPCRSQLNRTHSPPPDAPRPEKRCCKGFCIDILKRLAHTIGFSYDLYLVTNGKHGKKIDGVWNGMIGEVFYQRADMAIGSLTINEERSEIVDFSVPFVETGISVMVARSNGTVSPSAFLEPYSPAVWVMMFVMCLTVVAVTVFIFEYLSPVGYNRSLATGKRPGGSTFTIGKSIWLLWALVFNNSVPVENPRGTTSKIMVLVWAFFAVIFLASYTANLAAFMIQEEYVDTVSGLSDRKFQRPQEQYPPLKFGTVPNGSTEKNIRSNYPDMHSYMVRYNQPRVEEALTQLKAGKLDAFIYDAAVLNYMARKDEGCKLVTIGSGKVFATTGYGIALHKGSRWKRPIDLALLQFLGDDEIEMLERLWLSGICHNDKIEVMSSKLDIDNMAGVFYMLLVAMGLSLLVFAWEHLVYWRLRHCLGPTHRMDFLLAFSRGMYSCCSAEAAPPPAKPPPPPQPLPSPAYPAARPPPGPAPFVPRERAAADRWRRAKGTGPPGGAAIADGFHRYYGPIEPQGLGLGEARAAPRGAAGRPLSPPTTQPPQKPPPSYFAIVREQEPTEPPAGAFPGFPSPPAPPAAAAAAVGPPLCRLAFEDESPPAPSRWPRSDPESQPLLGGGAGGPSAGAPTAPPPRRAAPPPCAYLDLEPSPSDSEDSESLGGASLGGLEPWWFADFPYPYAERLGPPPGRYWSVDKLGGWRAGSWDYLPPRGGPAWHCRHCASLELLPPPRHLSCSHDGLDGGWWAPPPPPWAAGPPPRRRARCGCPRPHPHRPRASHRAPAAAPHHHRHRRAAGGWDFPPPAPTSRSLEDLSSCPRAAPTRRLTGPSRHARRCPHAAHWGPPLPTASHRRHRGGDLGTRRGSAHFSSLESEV
T6 sequence (Q00959 23-1464, other chains not shown): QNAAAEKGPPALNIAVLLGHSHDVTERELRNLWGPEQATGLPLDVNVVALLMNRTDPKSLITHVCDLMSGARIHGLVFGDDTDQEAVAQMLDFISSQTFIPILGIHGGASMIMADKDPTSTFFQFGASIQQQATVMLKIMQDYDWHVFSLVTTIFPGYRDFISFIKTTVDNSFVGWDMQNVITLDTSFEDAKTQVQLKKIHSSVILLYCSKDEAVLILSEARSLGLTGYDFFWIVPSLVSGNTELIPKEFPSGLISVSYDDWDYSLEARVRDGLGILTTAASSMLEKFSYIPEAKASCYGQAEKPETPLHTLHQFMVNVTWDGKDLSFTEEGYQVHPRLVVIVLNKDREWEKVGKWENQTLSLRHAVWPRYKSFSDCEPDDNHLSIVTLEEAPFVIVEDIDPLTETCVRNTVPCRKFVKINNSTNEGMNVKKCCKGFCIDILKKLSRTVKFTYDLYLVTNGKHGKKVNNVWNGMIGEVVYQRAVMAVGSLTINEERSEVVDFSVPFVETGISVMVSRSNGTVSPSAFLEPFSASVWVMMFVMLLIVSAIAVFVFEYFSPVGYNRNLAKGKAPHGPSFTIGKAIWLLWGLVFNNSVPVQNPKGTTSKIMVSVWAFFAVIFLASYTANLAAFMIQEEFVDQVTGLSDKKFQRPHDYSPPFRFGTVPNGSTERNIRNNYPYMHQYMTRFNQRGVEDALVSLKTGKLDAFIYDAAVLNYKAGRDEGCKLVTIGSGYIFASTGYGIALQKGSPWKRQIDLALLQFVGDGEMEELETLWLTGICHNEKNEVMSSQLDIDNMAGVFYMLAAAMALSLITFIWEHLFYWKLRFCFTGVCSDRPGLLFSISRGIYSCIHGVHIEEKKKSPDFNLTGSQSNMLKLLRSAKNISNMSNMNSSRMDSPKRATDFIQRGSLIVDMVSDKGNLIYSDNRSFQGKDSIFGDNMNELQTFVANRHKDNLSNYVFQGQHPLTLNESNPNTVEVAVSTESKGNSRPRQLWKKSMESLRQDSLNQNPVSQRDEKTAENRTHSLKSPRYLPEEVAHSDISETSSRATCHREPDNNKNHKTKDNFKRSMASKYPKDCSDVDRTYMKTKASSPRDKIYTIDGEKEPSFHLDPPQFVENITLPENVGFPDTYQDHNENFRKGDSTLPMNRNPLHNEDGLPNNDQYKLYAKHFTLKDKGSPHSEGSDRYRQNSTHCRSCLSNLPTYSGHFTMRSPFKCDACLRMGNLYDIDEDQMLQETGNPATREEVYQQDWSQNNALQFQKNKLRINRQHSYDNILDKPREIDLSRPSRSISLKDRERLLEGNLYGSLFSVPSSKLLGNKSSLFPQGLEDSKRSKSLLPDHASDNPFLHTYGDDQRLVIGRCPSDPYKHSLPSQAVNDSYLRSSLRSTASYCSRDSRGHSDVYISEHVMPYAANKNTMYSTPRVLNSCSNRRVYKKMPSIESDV
T2 sequence (Q62645 28-1323 M763K, other chains not shown): as the sequence (Q62645 28-1323, other chains not shown) above, with M736K counted along it
T4 sequence (Q62645 28-1323 M763K/K766R, other chains not shown): as the sequence (Q62645 28-1323, other chains not shown) above, with M736K, K739R counted along it
T3 sequence (Q62645 28-1323 K766R, other chains not shown): as the sequence (Q62645 28-1323, other chains not shown) above, with K739R counted along it

Regarding `N[C@@H](CCC(=O)O)C(=O)O` [L-glutamate, reference compound], the EC50 came to 0.17 ± 0.01 µM in experiment [1], 0.27 ± 0.02 µM in experiment [2], 0.13 ± 0.02 µM in experiment [3] and 0.17 ± 0.02 µM in experiment [4].

With `O=C(O)CCCCc1ccc2c(ccc3cc(C(=O)N4CCNC(C(=O)O)C4C(=O)O)ccc32)c1` (centres unmarked) [UBP1702], the inhibitory constant (Ki) was determined as 6.75 ± 0.75 µM in experiment [5] and 0.13 ± 0.01 µM in [1] (read-out: Ki). In addition, in experiment [6], the “fold difference of Ki vs. 2D (GluN2A)” value is given as ~ 52 fold. Besides, the IC50 in [7] and in experiment [8] was over 100 µM in each case. Further, the “Mean Response” value was 86.5% in experiment [7] (setting [22]), 97.4% in experiment [7] (setting [23]), 94.5% in [8] (setting [22]) and 96.0% in experiment [8] (setting [23]).

For `CCN(CC)C(=O)Oc1ccc(C(=O)Nc2cccc3cc[nH]c23)cc1` [NAB-14], the “GluN2C/2D preference over GluN2A/2B” value in experiment [9] is on record as “about 800 fold”. Also, the “selectivity for recombinant GluN2C/GluN2D over GluN2A/GluN2B” value in experiment [9] (reviewer's statement in peer review file, ref Swanger A. et al (2007)) was over 800 fold. For the same compound, the IC50 is 5 µM in experiment [10] (GluN2C-diheteromers, oocyte-based system, ref Swanger et al, 2017); 2.2 µM in experiment [11] (GluN2D expressed in Xenopus oocytes, ref Swanger et al., 2017); 0.58 µM and 0.584 µM in [12]; about 15 µM in experiment [13].

Turning to `O=C(O)C1NCCN(C(=O)c2ccc3c(ccc4ccccc43)c2)C1C(=O)O` [(2S,3R)-PPDA], the Ki in experiment [14] was 7.85 µM; in experiment [15], 1.17 µM. The “fold higher potency compared to the (+)-isomer” value in experiment [9] (GluN2C and GluN2D-containing NMDARs, ref Irvine et al, 2012) is recorded as ~ 50 fold; in experiment [11] (GluN2D-containing NMDARs, ref Jespersen et al, 2014), 7 fold. Besides, the “potency of (2S,3R)-PPDA compared with (2R,3S)-PPDA” value in experiment [9] was “approximately tenfold higher potency”. Moreover, the “fold higher potency than the racemate” value in experiment [9] (on GluN2C and GluN2D, ref 29 (Irvine et al., 2012)) is given as “about 1.4 fold”.

For `O=C(O)[C@H]1NCCN(C(=O)c2ccc3ccc4ccccc4c3c2)[C@H]1C(=O)O` (relative stereo) [UBP141, (2R*,3S*)-1-(phenanthrene-3-carbonyl)piperazine-2,3-dicarboxylic acid], in [9], the GluN2C/2D selectivity entry is on record as “up to approximately tenfold”. The inhibition of triheteromers result in experiment [16] is reported as “inhibits”.

`Cc1ccc2[nH]c(=O)c(C3=NN(C(=O)CCC(=O)O)C(c4ccc(Br)cc4)C3)c(-c3ccccc3)c2c1` (centres unmarked) [DQP-1105]: in experiment [9], the “GluN2C/2D preference over GluN2A/2B” value is reported as ~ 50 fold.

Regarding `O=C(O)Cc1cccnc1C(=O)O` [HQA, homoquinolinic acid], the EC50 is 10 to 20 µM in experiment [17] (setting [24]), 10 to 20 µM in experiment [18], 30 to 90 µM in experiment [10] (setting [24]) and 30 to 90 µM in [11] (setting [24]).

For the compound `COc1ccc2nc(/C=C/c3cccc([N+](=O)[O-])c3)n(-c3ccc(C(=O)O)cc3)c(=O)c2c1` [QNZ46], the “GluN2C/2D preference over GluN2A/2B” value in experiment [9] is recorded as ~ 50 fold.

Regarding `O=C(O)[C@@H]1[C@H](C(=O)O)NCCN1C(=O)c1ccc2c(ccc3ccccc32)c1` (relative stereo) [PPDA, (2S*,3R*)-1-(phenanthrene-2-carbonyl)piperazine-2,3-dicarboxylic acid], in experiment [17] (GluN2A, PPDA values ref 27), the Ki is about 0.5 µM. Also, the “increase of potency compared with the WT GluN2A” value in [19] is “fivefold”.

In the case of `CC(Cc1ccc2c(ccc3cc(C(=O)N4CCN[C@H](C(=O)O)[C@@H]4C(=O)O)ccc32)c1)C(=O)O` (some centres unmarked) [UBP1701], the Ki in experiment [5] stood at 4.49 ± 0.46 µM; in experiment [1] (Ki, Cheng–Prusoff from IC50 and L-glutamate EC50, 100 μM glycine, 1 or 3 μM L-glutamate), 0.1 ± 0.01 µM. In [6], the “fold difference of Ki vs. 2D (GluN2A)” value is on record as ~ 45 fold. Also, the IC50 in [7] and in experiment [8] was over 100 µM throughout. Moreover, the “Mean Response” value in [7] (setting [22]) amounted to 92.5%; in experiment [7] (setting [23]), 91.6%; in experiment [8] (setting [22]), 96.9%; in experiment [8] (setting [23]) it was 96.1%.

On to `O=C(O)[C@H]1NCCN(C(=O)c2ccc3cc(Br)c4ccccc4c3c2)[C@H]1C(=O)O` (relative stereo) [UBP145, (2R*,3S*)-1-(9-bromophenanthrene-3-carbonyl)piperazine-2,3-dicarboxylic acid], for which, in [9], the GluN2C/2D selectivity entry is “up to approximately tenfold”. The “effect on tPA neurotoxicity” value in [20] was “blocked neurotoxicity of co-applied tissue plasminogen activator (tPA)”. Besides, the block of triheteromers entry in experiment [21] is given as “blocks”.
